Test results published in US9012365B2, “Compatibility agents for herbicidal formulations comprising 2,4-(Dichlorophenoxy) acetic acid salts” (priority 2006, dated 2015).

Legend:
[1] = System appearance and pH after adding chemicals into System A; assay type: physicochemical
Source text: System appearance after adding various chemicals into “System A” which was 100 g of 3% 2,4-D DMA (50%)+90% water (1000 ppm)+7% Ammonium sulfate (40%).

[2] = Appearance of 10 g solution of (2.5 wt % ai 2,4-D DMA + tested chemical) after adding 40% AMS; assay type: physicochemical; settings: 2.5 wt % ai 2,4-D DMA; for Addition Weight of 40% AMS: System was clear after adding / Addition Weight of 40% AMS: System was cloud after adding: 10 g solution
Experimental: In this example, the appearance of a 10 g solution of (2.5 wt % ai 2,4-D DMA+tested chemical) was evaluated after adding 40% AMS

[3] = added into 100 g System A, added wt 0.815 g Ethoquad, 0.079 g NH4OH, 0.091 g dimethylamine, 1.07 g NaOH
[4] = added wt 1.35 grams into 100 g System A
[5] = 0.13 wt % a.i. of tested chemical, 0 gram 40% AMS
[6] = 0.13 wt % a.i. of tested chemical
[7] = 1.25 wt % a.i. of tested chemical

Row | Compound | 0 gram Appearance [2, 5] | Addition Weight of 40% AMS: System was clear after adding [2, 6] | Addition Weight of 40% AMS: System was cloud after adding [2, 6] | also measured
1 | [Na+].[OH-] [10% NaOH, NaOH] | – | – | – | Appearance [1, 3]: clear; pH [1, 3]: 6; Appearance [1, 4]: crystals re-appeared; pH [1, 4]: 10
2 | CNC [Dimethylamine 40%, Dimethylamine] | – | – | – | Appearance [1, 3]: slightly hazy; pH [1, 3]: 7.8
3 | N.O [NH4OH 28-30%, NH4OH] | – | – | – | Appearance [1, 3]: hazy; pH [1, 3]: 8
4 | Soya acid ethoxylate-10EO | Clear | 0.482 grams | 0.756 grams | –
5 | Tall oil fatty acid amidoamine-10EO | Clear | 1.591 grams | 2.243 grams | –
6 | Tall oil fatty acid-4EO | very cloudy | very cloudy | 0 grams | –
7 | Tallow acid + triethanolamine + 10EO | Clear | 2.087 grams | 3.049 grams | –
8 | Tallowamine-2EO | Clear | 1.31 grams | 1.513 grams | –
9 | Tallowamine-6EO | Clear | 1.485 grams | 1.751 grams | –
10 | Tallowamine-14EO | Clear | 1.273 grams | 1.526 grams | –
11 | Tallowamine-15EO methylchloride | Clear | 1.731 grams | 2.014 grams | –
12 | Trideceth-4 | cloudy | cloudy | 0 grams | –
13 | Trideceth-6 | Clear | 0.47 grams | 0.717 grams | –
14 | Trideceth-8 | Clear | 0.458 grams | 0.684 grams | –
15 | Trideceth-10 | Clear | 0.557 grams | 0.685 grams | –
16 | Trideceth-12 | Clear | 0.581 grams | 0.688 grams | –
17 | Triethyl ammonium phosphate | – | – | – | 0 gram Appearance [2, 7]: Clear; Addition Weight of 40% AMS: System was clear after adding [2, 7]: 0.303 grams; Addition Weight of 40% AMS: System was cloud after adding [2, 7]: 0.535 grams
18 | Tristyrylphenol + 15EO | Clear | 2.102 grams | 2.509 grams | –
19 | Tristyrylphenol + 16EO | Clear | 1.084 grams | 2.235 grams | –
